The text below walks through data of patent US6900198B2, “Synthetic catalytic free radical scavengers useful as antioxidants for prevention and therapy of disease” (Eukarion, Inc., priority 1995, dated 2005).

Data set [1] has as its system Human dermal fibroblasts (HF cells). Put plainly: Protection against t-butyl hydroperoxide toxicity in human fibroblasts (XTT). It is filed as cell-based. Particulars: 80 μM with 0.5 mM t-BHP. On the procedure:
(§1) Human dermal fibroblasts (HF cells) were obtained from the American type tissue Culture Collection at passage 1 and cultured and propagated in a medium (HF medium) consisting of Dulbecco's Modified Eagle's Medium with 4.5 g/l D-glucose, 10% calf serum 4 mM glutamine, 50 units/ml penicillin, and 50 μg/ml streptomycin in a 37° C. humidified incubator equilibrated with 5% CO2. Cells were used at passages 5 or 6 for experiments. For cell protection assays, HF cells were seeded at a density of about 15,000 cells per cm2 onto 96-well culture plates and allowed to grow to confluence. […] After 2 hr., the absorbance at 490 nm was measured in a BioRad (Richmond, Calif.) Model 3550 plate-reader, using a reference wavelength of 655 nm. […] Absorbance measurements for blank wells, containing HF medium and XTT reagent but no cells, were also determined. […] Fresh HF medium was then added and cell viability assessed using the XTT reagent as described above. […]
Cell protection assays were performed as described under Experimental Procedures with salen-manganese complexes administered at the indicated concentrations and t-BHP at 0.5 mM. Cell viability was assessed using the XTT reagent as described and is expressed as the absorbance at 490 nm uncorrected for blank. […]
A general note: Tetrazolium dyes change colour on reduction, which living cells bring about.

The test system is the same in data set [2]. Put plainly: Protection against glucose and glucose oxidase toxicity in human fibroblasts (XTT). The format is cell-based. As to conditions: glucose oxidase 0.019 units/ml. How it is done:
Cytotoxicity studies were performed as described under Experimental procedures. Absorbance values, corrected by subtracting the blank signal of 0.17 OD units, are the means±sd of triplicate samples. Control cells (open circle) received no glucose oxidase. Catalase-treated (solid circle) cells received glucose oxidase (0.019) units/ml) as well as bovine liver catalase (290 units/ml). Other samples received the same dose of glucose oxidase and the indicated concentrations of salen manganese complex.
as §1, with “experiments.” for “experiments. For cell protection assays, HF cells were seeded at a density of about 15,000 cells per cm2 onto 96-well culture plates and allowed to grow to confluence.”

The nature of data set [3]: Peroxidase activity, H2O2-dependent oxidation of ABTS. It is filed as biochemical. Particulars: for peroxidase activity (relative, in words): 10 μM salen manganese complex, 0.2 mM H2O2. On the procedure:
(§2) Peroxidase activity was assayed by monitoring the hydrogen peroxide-dependent oxidation of 2,2′-azino-bis(3-ethylbenzthiazoline-6) sulfonic acid (ABTS) spectrophotometrically. Standard assay mixtures consisted of 50 mM sodium phosphate, pH 8.1, 0.9% sodium chloride, 0.5 mM ABTS, and H2O2 and salen manganese complex as indicated. Where indicated, 50 mM sodium phosphate buffers of pH 6.0 or pH 7.1 were substituted. Assays were conducted at 27±0.2° C. ABTS oxidation was monitored at 740 or 500 nm to eliminate interference by the salen manganese complexes, many of which absorb in the vicinity of the λmax of oxidized ABTS, and to avoid absorbance values that exceeded the linear range of the spectrophotometer. The amount of oxidized ABTS was estimated using an Δε740 of 20,300 M^−1cm^−1 or an Δε500 of 3400 M^−1cm^−1 calculated based upon the published molar extinction coefficient oat 405 nm (36,800).
Compounds were assayed for SOD as described under Experimental procedures, using cytochrome C as acceptor. The concentration of each compound showing half-maximal activity in this assay is presented. Catalase and peroxidase activities were conducted as described under Experimental Procedures, with 10 μM salen manganese complex. The H2O2 concentration was 10 mM and 0.2 mM in the catalase and peroxidase assays, respectively. Where denoted, “nd” means that the assay was not performed on this compound.
Catalase and peroxidase activities were assayed as described in Example 2. Catalase assays contained 10 μM salen-manganese complex and 10 mM hydrogen peroxide. Peroxidase assays contained 10 μM salen-manganese complex and 0.2 mM hydrogen peroxide. Glucose-glucose oxidase toxicity assays were performed using human dermal fibroblasts as described in Example 2.

Data set [4] can be described thus: Catalase activity, polarographic oxygen electrode. As to conditions: 10 μM salen manganese complex, 10 mM H2O2. It is filed as biochemical. How it is done: Catalase activity was assayed by monitoring the conversion of H2O2 to oxygen using a Clark-type polarographic oxygen electrode. The apparatus consisted of a Mini Clark Style electrode, a 600 μl Oxygen Uptake Chamber, and a Chemical Microsensor system, all obtained from Diamond General Corporation (Ann Arbor, Mich.). The electrode was calibrated by immersion in nitrogen- or air-equilibrated buffers using a Dual Chamber Calibration Cell (Diamond General, Corp.). Catalase reaction mixtures consisted of 50 mM sodium phosphate, pH 8.1,0.9% sodium chloride, and salen manganese complex and H2O2 at the indicated concentrations. The temperature of the water-jacketed reaction chamber, as well as the calibration buffers, was maintained at 25±0.1° C. Data were collected at 1 sec intervals and stored on a MacIntosh II computer using data acquisition hardware and software by Strawberry Tree, Inc. (Sunnyvale, Calif.). Dissolved oxygen concentrations were calculated as described previously (Del Rio et al. (1977) Anal. Biochem. 80: 409) based on a value of 2.5×10^−4 M oxygen for air-saturated buffer at 25° C. Linearity of the dissolved oxygen measurements within the experimental range was continued by determining the amount of oxygen generated from known quantities of H2O2 during exhaustive treatment with bovine liver catalase. Stock solutions of H2O2 were prepared by diluting a commercial 30% H2O2 solution in water and the H2O2 concentrations in these stocks were determined by absorbance at 240 nm, using a molar extinction coefficient of 44 (Stadtman, E R. et al. (1990) Proc. Natl. Acad. Sci. USA 87: 384). […] In the absence of salen manganese complex, H2O2 alone typically produced an early, relatively slow increase in signal. The slope of this increased signal was not proportional to H2O2 concentration (for example in one experiment, 1 and 10 Mm H2O2 yielded apparent rates of 12 and 14 μM oxygen per min, respectively) and may be due to an electrode artifact. […] Where presented, initial rates were calculated by determining the slope of the linear portion of time dependent plots of oxygen generation, usually comprising the first five seconds of the reaction. Unless otherwise indicated, these were corrected by subtracting the rate obtained with H2O2 alone. Where presented, endpoint oxygen generated was calculated from time-dependent plots, such as those shown in FIG. 14, as the difference between the baseline oxygen concentration immediately prior to-substrate addition and the maximal oxygen concentration achieved during the course of the reaction. All reactions subjected to these calculations were run for a sufficient time to ensure that oxygen generation had ceased.
Compounds were assayed for SOD as described under Experimental procedures, using cytochrome C as acceptor. […]

The next data set has as its system Hippocampal slices. Put plainly: Anoxia in hippocampal slices, EPSP recovery. The format is cell-based, Sprague-Dawley rats. As to conditions: C7 50 μM. The source says:
Anoxia in hippocampal slices. […] A glass recording micropipet was positioned in CA1 stratum radiatum to record excitatory postsynaptic potential (EPSPs) generated by electrical stimulation of the Schaffer-commissural pathway by a bipolar stimulation electrode at a frequency of 0.033 Hz. During anoxic episodes, the oxygen supply was replaced with 100% N2 gas. N2 was supplied for 90 seconds following electrical silence after which O2 was reintroduced. Recovery of EPSPs (both slope and amplitude) was recorded for 50 minutes, at which time the final viability of the slices was determined, with viability being defined as the ability of the slice to generate a 3 mV EPSP.

Data set [5] is described as follows: Peroxidase activity toward t-BHP, ABTS oxidation. Particulars: 1 mM t-BHP versus same concentration of H2O2. It is filed as biochemical. How it is done: as §2
(In comparison, horseradish peroxidase utilized t-BHP with an ABTS oxidation rate that was about 5.4% of the rate with H2O2).

For `CC(=O)[O][Mn]1[O]c2ccccc2C=NCCN=Cc2ccccc2[O]1` [Compound C31], the “reduced viability at 80 μM relative to 40 μM together with t-BHP” value in data set [1] is reported as “possible synergistic toxicity with t-BHP”. In data set [2], the “protection against glucose and glucose oxidase (overall, in words)” value is given as “about equally as effective as C7”.
With `COc1cccc2c1[O][Mn]([O]C(C)=O)[O]c1c(cccc1OC)C=NCCN=C2` [Compound C32], in data set [2], the “protection against glucose and glucose oxidase (overall, in words)” value is reported as “more protective than C43”. In data set [3], the “peroxidase activity (relative, in words)” value is on record as “fastest peroxidases”. Also, in data set [4], the “catalase activity, initial rate (relative, in words)” value was “about twice as fast as C7”; the “catalase endpoint: total oxygen generated / turnovers completed before the reaction ceased (relative, in words)” value is recorded as “almost twice the amount of oxygen as C7”; the “catalase turnovers before the reaction ceased” value is “about 16 turnovers”.
For `COc1cccc2c1[O][Mn]([O]C(C)=O)[O]c1c(cccc1OC)C=NCCCN=C2` [Compound C51], the “peroxidase activity (relative, in words)” value in data set [3] was “reduced catalase and peroxidase activities”. Moreover, the “catalase activity, initial rate (relative, in words)” value in data set [4] was “reduced catalase and peroxidase activities”.
With “Purified bovine SOD: purified bovine superoxide dismutase”, the “protection against anoxia-induced decrease in synaptic response in CA1 (EPSP slope and amplitude)” value in the data set on Hippocampal slices is “no protection”.
For horseradish peroxidase, the “ABTS oxidation rate with t-BHP as percent of the rate with H2O2” value in data set [5] is “about 5.4%”.

B1: bovine liver catalase: bovine liver catalase enzyme used as reference (protein, UniProt P00432 2-527, looked up)
Catalase: ADNRDPASDQMKHWKEQRAAQKPDVLTTGGGNPVGDKLNSLTVGPRGPLLVQDVVFTDEMAHFDRERIPERVVHAKGAGAFGYFEVTHDITRYSKAKVFEHIGKRTPIAVRFSTVAGESGSADTVRDPRGFAVKFYTEDGNWDLVGNNTPIFFIRDALLFPSFIHSQKRNPQTHLKDPDMVWDFWSLRPESLHQVSFLFSDRGIPDGHRHMNGYGSHTFKLVNANGEAVYCKFHYKTDQGIKNLSVEDAARLAHEDPDYGLRDLFNAIATGNYPSWTLYIQVMTFSEAEIFPFNPFDLTKVWPHGDYPLIPVGKLVLNRNPVNYFAEVEQLAFDPSNMPPGIEPSPDKMLQGRLFAYPDTHRHRLGPNYLQIPVNCPYRARVANYQRDGPMCMMDNQGGAPNYYPNSFSAPEHQPSALEHRTHFSGDVQRFNSANDDNVTQVRTFYLKVLNEEQRKRLCENIAGHLKDAQLFIQKKAVKNFSDVHPEYGSRIQALLDKYNEEKPKNAVHTYVQHGSHLSAREKANL
For the molecule B1, the “reduction of the initial rate of ABTS oxidation by C7” value in data set [3] (29 units/ml bovine liver catalase added, 10 mM H2O2) is listed as 55%.
